Data as given in the supplement of paper PMC11208160.

assay: recombinant barcode read abundance after kanamycin selection (control-corrected) (log10(CPM+1)); higher = more efficient recombination; sequences stand for … in AGTGCAGAGAAAATCGGCCAGTTTTCTCTGCCTGCAGTCCGCATGCCGT…AGATTTATGCAGCGGACTGCCTTTCTCCCAAAGTGATAAACCGGACAGTATCATGGACCGGTTTTCCCGGTAATCCGTATTTGCAAGGTTGGTTTCACT; site = the 11-nt target
Outline: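 Recombination efficiency comes from barcode counts at recombinant junctions, converted to counts per million, averaged and corrected against the control. Values appear as log10(CPM+1). They were obtained from a pooled E. coli screen in which each oligo paired a target with an IS621 bridge RNA target-binding loop, and cells were plated in duplicate on chloramphenicol/ampicillin LB agar or on chloramphenicol/ampicillin/kanamycin with 0.1 mM IPTG.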
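Note: IS621 recombinase and bridge RNA in Escherichia coli cells.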

Sequence	recombinant barcode read abundance (log10)
AGCCACGCTTGGGTTCTAACCTGTTGCCT (site AGCCACACTAG)	0.124
AGCCACGCTTGGGTTCTAACCTGTTGCCT (site AGCCACCCTAG)	0.27
AGCCACGCTTGGGTTCTAACCTGTTGCCT (site AGCCACGCTAG)	1.11
AGCCACGCTTGGGTTCTAACCTGTTGCCT (site AGCCACTCTAG)	0.153
AGCCATCCTTGGGTTCTAACCTGTTGCAT (site AGCCATCCTAT)	0.723
AGCCATCCTTGGGTTCTAACCTGTTGCAT (site TGCCATCCTAT)	0.0638
AGCCCGCCTTGGGTTCTAACCTGTTGCCT (site AGCCCGCCTAG)	0.358
AGCCCGCCTTGGGTTCTAACCTGTTGCCT (site CGCCCGCCTAG)	0.39
AGCCCGCCTTGGGTTCTAACCTGTTGCCT (site GGCCCGCCTAG)	0.178
AGCCCGCCTTGGGTTCTAACCTGTTGCCT (site TGCCCGCCTAG)	0.157
AGCCCTTCTTGGGTTCTAACCTGTTGCTT (site AGCCCTTCTAA)	0.083
AGCCCTTCTTGGGTTCTAACCTGTTGCTT (site GTAGGGACTCG)	0.0698
AGCCTCCCTTGGGTTCTAACCTGTTGCCA (site AGCCTCCCTTG)	0.663
AGCCTCCCTTGGGTTCTAACCTGTTGCCA (site CAGGGGTCTAT)	0.121
AGCGAGGCTTGGGTTCTAACCTGTTGCCT (site AGCGAAGCTAG)	0.0233
AGCGAGGCTTGGGTTCTAACCTGTTGCCT (site AGCGAGGCTAG)	0.188
AGCGCGCCTTGGGTTCTAACCTGTTGCTG (site AGCGCGCCTCA)	0.224
AGCGCGCCTTGGGTTCTAACCTGTTGCTG (site GAGTACACTGC)	0.00819
AGCGCTCCTTGGGTTCTAACCTGTTGCCT (site AACGCTCCTAG)	0.0472
AGCGCTCCTTGGGTTCTAACCTGTTGCCT (site ACCGCTCCTAG)	0.305

Sequence	recombinant barcode read abundance (log10)
AGCGCTCCTTGGGTTCTAACCTGTTGCCT (site AGCGCTCCTAG)	0.68
AGCGCTCCTTGGGTTCTAACCTGTTGCCT (site ATCGCTCCTAG)	0
AGCGGCCCTTGGGTTCTAACCTGTTGCCT (site AGCGGACCTAG)	0.466
AGCGGCCCTTGGGTTCTAACCTGTTGCCT (site AGCGGCCCTAG)	1.26
AGCGGCCCTTGGGTTCTAACCTGTTGCCT (site AGCGGGCCTAG)	0.0662
AGCGGCCCTTGGGTTCTAACCTGTTGCCT (site AGCGGTCCTAG)	0.0761
AGCTAATCTTGGGTTCTAACCTGTTGCTT (site AGCTAATCTAA)	0.0369
AGCTAATCTTGGGTTCTAACCTGTTGCTT (site GAGCTGCCTTG)	0.0324
AGCTATGCTTGGGTTCTAACCTGTTGCCT (site AGCTATGCTAG)	0.317
AGCTATGCTTGGGTTCTAACCTGTTGCCT (site GAAATACCTCC)	0.138
AGCTGTCCTTGGGTTCTAACCTGTTGCAG (site AGCTGTCCTCT)	0.273
AGCTGTCCTTGGGTTCTAACCTGTTGCAG (site TAGGCGGCTAC)	0.0556
AGCTTAGCTTGGGTTCTAACCTGTTGCCA (site AGCTTAGCTAG)	0.484
AGCTTAGCTTGGGTTCTAACCTGTTGCCA (site AGCTTAGCTCG)	0.365
AGCTTAGCTTGGGTTCTAACCTGTTGCCA (site AGCTTAGCTGG)	0.463
AGCTTAGCTTGGGTTCTAACCTGTTGCCA (site AGCTTAGCTTG)	0.387
AGGAACACTTGGGTTCTAACCTGTTGCCT (site AGAAACACTAG)	1.36
AGGAACACTTGGGTTCTAACCTGTTGCCT (site AGGAACACTAG)	1.94
AGGAACACTTGGGTTCTAACCTGTTGCTG (site AGGAACACTAA)	0.803
AGGAACACTTGGGTTCTAACCTGTTGCTG (site AGGAACACTCA)	2.65

Sequence	recombinant barcode read abundance (log10)
AGGAACTCTTGGGTTCTAACCTGTTGCAT (site AGGAACTCTAT)	2.44
AGGAACTCTTGGGTTCTAACCTGTTGCAT (site GGGAACCCTAT)	0.0839
AGGAACTCTTGGGTTCTAACCTGTTGCTT (site AGGAACTCTAA)	1.87
AGGAACTCTTGGGTTCTAACCTGTTGCTT (site AGGAGCTCTTA)	0.0561
AGGAAGACTTGGGTTCTAACCTGTTGCCA (site AGGAAGACTTG)	0.948
AGGAAGACTTGGGTTCTAACCTGTTGCCA (site AGGCAGACTTG)	0.0465
AGGAAGACTTGGGTTCTAACCTGTTGCCA (site AGGGAGACTTG)	0.239
AGGAAGACTTGGGTTCTAACCTGTTGCCA (site AGGTAGACTTG)	0.412
AGGAAGACTTGGGTTCTAACCTGTTGCCG (site AGGAAGACTCC)	0.883
AGGAAGACTTGGGTTCTAACCTGTTGCCG (site AGGAAGACTCG)	1.95
AGGACCACTTGGGTTCTAACCTGTTGCCA (site AGGACCACTTG)	0.868
AGGACCACTTGGGTTCTAACCTGTTGCCA (site ATGACCGCTTG)	0.0948
AGGAGCCCTTGGGTTCTAACCTGTTGCGA (site AGGAGCCCTTC)	2.84
AGGAGCCCTTGGGTTCTAACCTGTTGCGA (site CGGAGCCCTCC)	0.0589
AGGAGTCCTTGGGTTCTAACCTGTTGCGT (site AGCAGTCCTAC)	0.182
AGGAGTCCTTGGGTTCTAACCTGTTGCGT (site AGGAGTCCTAC)	2.57
AGGAGTCCTTGGGTTCTAACCTGTTGCTG (site AGGAATCCTAA)	1.57
AGGAGTCCTTGGGTTCTAACCTGTTGCTG (site AGGAGTCCTCA)	2.08
AGGATTCCTTGGGTTCTAACCTGTTGCCT (site AAGATTCCTAG)	0.171
